Test [1] deals with TNF-α-induced IL-6 production in normal human skin fibroblast-derived CCD-1059Sk cells. Put plainly: Test for measurement of inhibitory activity against TNF-α-induced IL-6 production. In kind it is cell-based. The following applies: Homo sapiens, CCD-1059Sk, 16 h, test compound at 10 μM, TNF-α stimulation 16 hours, inhibition ratio of 100% or more is indicated as 100%. As for the experimental part: 1. Test for Measurement of Inhibitory Activity Against IL-6 Production
An inhibitory effect on TNF-α-induced IL-6 production in normal human skin fibroblast-derived CCD-1059Sk cells (ATCC No. CRL-2072) was evaluated. The amount of IL-6 was determined by the homogeneous time-resolved fluorescence method using HTRF™ Human IL-6 kit (Cat. No. 62IL6PEB, manufactured by CIS-Bio international, Inc.). Specific test methods will be described below.
(Preparation of Test Compound Solution)
After a test compound was dissolved in dimethyl sulfoxide, the resulting solution was diluted with D-MEM medium containing 0.1% heat-inactivated fetal bovine serum, 0.1 mM MEM non-essential amino acid solution, 100 U/mL penicillin and 100 μg/mL streptomycin (hereinafter referred to as “medium”), whereby a 40 μM test compound solution was prepared.
(Test Method and Measurement Method)
1) CCD-1059Sk cells prepared at a density of 3×10^5 cells/mL were inoculated in a 384-well plate in an amount of 10 μL per well such that the cell density was 3×10^3 cells/well.
2). After the plate was incubated at 37° C. for several hours in a CO2 incubator, 5 μL of the test compound was added to each well.
3) After the plate was incubated at 37° C. for 1 hour in a CO2 incubator, 5 μL of a 40 ng/mL TNF-α solution was added to each well.
4) After the plate was incubated at 37° C. for 16 hours in a CO2 incubator, 10 μL of a cryptate-labeled anti-IL-6 antibody and an XL665-labeled anti-IL-6 antibody containing potassium fluoride was added to each well.
5) After the plate was incubated at room temperature for several hours, a fluorescence intensity ratio (665 nm/620 nm) was determined for each well using a multimode plate reader Analyse™ HT (manufactured by Molecular Device Corporation) and Criterion Host software version 2.00 (manufactured by Molecular Device Corporation), and then, the amount of IL-6 was calculated.
6) The same procedures as in the above 1) to 5) were performed except that 0.4% dimethyl sulfoxide was added in place of the test compound, and the obtained result was designated as the control.
7) The same procedures as in the above 1) to 5) were performed except that 0.4% dimethyl sulfoxide and the medium were added in place of the test compound and the TNF-α solution, respectively, and the obtained result was designated as the background.
(Calculation Formula of IL-6 Production Inhibition Ratio)
An IL-6 production inhibition ratio (%) was calculated from the following formula. IL-6 Production Inhibition Ratio (%)=100×{1−[(Amount of IL-6 for Test Compound)−(Amount of IL-6 for Background)/(Amount of IL-6 for Control)−(Amount of IL-6 for Background)]} (Evaluation Results)

In test [2] the test system is choroidal neovascularization induced by krypton laser irradiation. Put plainly: Evaluation test for inhibitory effect on choroidal neovascularization (rat model induced by krypton laser irradiation). The conditions noted are these: po, 168 h, 30 mg/kg/day orally once a day for 7 days (day 0 to day 6), fluorescein fundus angiography on day 7, versus vehicle administration group, average of 5 to 8 eyes of 3 to 4 rats, read-out: Ratio of incidence of neovascularization (% of control). It counts as in vivo, Brown Norway rat. An excerpt:
2. Evaluation Test for Inhibitory Effect on Choroidal Neovascularization
As one of the methods widely used for evaluating an inhibitory effect on choroidal neovascularization, a rat model of choroidal neovascularization induced by krypton laser irradiation has been reported in Graefe's Arch. Cli. Exp. Ophthalmol., 235, 313-319 (1997). According to the method described in this document, a ratio of incidence of choroidal neovascularization of a present compound administration group to that of a vehicle administration group was calculated using the rat model of choroidal neovascularization, and an inhibitory effect of the present compound on choroidal neovascularization was evaluated using the calculated value as an index. Specific test methods will be described below.
(Preparation of Administration Liquid of Test Compound)
A test compound was suspended in a 1% aqueous methyl cellulose solution, whereby a 6 mg/mL test compound suspension was prepared.
(Preparation of Rat Model of Choroidal Neovascularization Induced by Krypton Laser)
1) To a Brown Norway rat (male, 7 to 8 weeks of age), a mixed solution of a 5% ketamine hydrochloride injection solution and a 2% xylazine hydrochloride injection solution (7:1) was intramuscularly administered at a dose of 1 mL/kg to effect systemic anesthesia.
2) After a 0.5% tropicamide-0.5% phenylephrine hydrochloride eye drop was instilled into the eyes to cause mydriasis, photocoagulation was performed using a krypton laser photocoagulation apparatus (MC-7000, manufactured by NIDEK Co., Ltd.). The krypton laser irradiation was performed at eight spots per eye sparsely by focusing on the retinal deep layer avoiding large retinal vessels in a posterior section of ocular fundus. The photocoagulation conditions were set such that the spot size was 100 μm, the output was 100 mW and the coagulation time was 0.1 sec.
3) After the photocoagulation, the ocular fundus photography was performed (PRO III, manufactured by Kowa Company, Ltd.) to confirm the photocoagulation (krypton laser irradiation) sites.
(Administration Method of Test Compound)
1) The test compound suspension (30 mg/kg/day) was orally administered once a day for 7 consecutive days from the day of krypton laser irradiation (day 0) until day 6.
2) A 1% aqueous methyl cellulose solution was administered in the same manner as in 1) in place of the test compound suspension, and the obtained result was designated as the vehicle administration group.
1). On day 7 after the photocoagulation, 0.1 mL of a 10% aqueous fluorescein solution was injected into the tail vein, and fluorescein fundus angiography was performed (PRO III, manufactured by Kowa Company, Ltd.).
2) In the fluorescein fundus angiography, a spot where fluorescence leakage was not observed was determined to be negative and a spot where fluorescence leakage was observed was determined to be positive. With respect to photocoagulation sites where a little fluorescence leakage was observed, in the case where there were two such photocoagulation sites, it was determined to be positive.
(Calculation Formula of Incidence of Neovascularization)
An incidence (%) of neovascularization of each administration group and a ratio of incidence of neovascularization of the test compound administration group to that of the vehicle administration group were calculated from the following formulae, respectively. Incidence of Neovascularization of Each Administration Group (%)=[(Number of Positive Photocoagulation. Sites)/(Number of Total Photocoagulation Sites)]×100 Ratio of Incidence of Neovascularization of Test Compound Administration Group to that of Vehicle Administration Group (% of Control)=[(Incidence of Neovascularization of Test Compound Administration Group)/(Incidence of Neovascularization of Vehicle Administration Group)]×100 (Evaluation Results)

On to `NC(=O)Nc1[nH]c(-c2cccc(Cl)c2)cc1C(N)=O` [Compound 1-25, 2-Aminocarbonylamino-5-(3-chlorophenyl) pyrrole-3-carboxamide], for which the inhibition at 10 µM in test [1] stood at 99%. Moreover, in test [2], the response vs control in vivo at 30 mg/kg came out at 52%.

`NC(=O)Nc1[nH]c(-c2ccc(F)cc2)cc1C(N)=O` [Compound 1-8, 2-Aminocarbonylamino-5-(4-fluorophenyl) pyrrole-3-carboxamide]: the inhibition at 10 µM in test [1] came to 93%. In addition, the response vs control in vivo at 30 mg/kg in test [2] was 31%.

With `CCCOc1ccc(F)cc1-c1cc(C(N)=O)c(NC(N)=O)[nH]1` [Compound 4-34, 2-Aminocarbonylamino-5-(5-fluoro-2-propyloxyphenyl) pyrrole-3-carboxamide], the inhibition at 10 µM in test [1] is 100%. Also, the response vs control in vivo at 30 mg/kg in test [2] stood at 75%.

Regarding `NC(=O)Nc1[nH]c(-c2cc(F)ccc2OCCO)cc1C(N)=O` [Compound 4-54, 2-Aminocarbonylamino-5-[5-fluoro-2-(2-hydroxyethyloxy)phenyl]pyrrole-3-carboxamide], the inhibition at 10 µM in test [1] was 96%. Besides, in test [2], the response vs control in vivo at 30 mg/kg is 86%.

As for `CCCOc1ccccc1-c1cc(C(N)=O)c(NC(N)=O)[nH]1` [Compound 4-4, 2-Aminocarbonylamino-5-(2-propyloxyphenyl) pyrrole-3-carboxamide], the inhibition at 10 µM in test [1] is 90%. For the same compound, the response vs control in vivo at 30 mg/kg in test [2] came out at 71%.

On to `COc1ccccc1-c1cc(C(N)=O)c(NC(N)=O)[nH]1` [Compound 1-9, 2-Aminocarbonylamino-5-(2-methoxyphenyl) pyrrole-3-carboxamide], for which, in test [1], the inhibition at 10 µM is 100%. Moreover, the response vs control in vivo at 30 mg/kg in test [2] amounted to 40%.

As for `CCCOc1ccc(Cl)cc1-c1cc(C(N)=O)c(NC(N)=O)[nH]1` [Compound 4-37, 2-Aminocarbonylamino-5-(5-chloro-2-propyloxyphenyl)pyrrole-3-carboxamide], the inhibition at 10 µM in test [1] amounted to 97%. Besides, in test [2], the response vs control in vivo at 30 mg/kg is 69%.

`N#CCOc1ccc(Cl)cc1-c1cc(C(N)=O)c(NC(N)=O)[nH]1` [Compound 4-43, 2-Aminocarbonylamino-5-(5-chloro-2-cyanomethyloxyphenyl)pyrrole-3-carboxamide]: in test [1], the inhibition at 10 µM was 99%. Besides, the response vs control in vivo at 30 mg/kg in test [2] was 57%.

One may read the inhibition as the drop in the measured response relative to a control, in per cent.

Values taken from US7977371B2, “Pyrrole derivative having ureido group and aminocarbonyl group as substituents” (Santen Pharmaceutical Co., Ltd., priority 2007, dated 2011).
